According to US20250101029A1, “ORGANIC COMPOUNDS” (INTRA-CELLULAR THERAPIES, INC., priority 2022, published 2025):

How the values were obtained:
Conditions in all cases: qualitative statement
D1 = D1 (Homo sapiens, UniProt P21728); assay: Receptor binding, D1
SERT = SERT (Homo sapiens, UniProt P31645); assay: Receptor binding, SERT
D2 = D2 (Homo sapiens, UniProt P14416); assay: Receptor binding, D2
Mu opiate receptor = Mu opiate receptor (Homo sapiens, UniProt P35372); assay: Receptor binding, Mu opiate receptor
5-HT2A = 5-HT2A (Homo sapiens, UniProt P28223); assay: Receptor binding, 5-HT2A
Chain of 5-HT2A (P28223 whole entry): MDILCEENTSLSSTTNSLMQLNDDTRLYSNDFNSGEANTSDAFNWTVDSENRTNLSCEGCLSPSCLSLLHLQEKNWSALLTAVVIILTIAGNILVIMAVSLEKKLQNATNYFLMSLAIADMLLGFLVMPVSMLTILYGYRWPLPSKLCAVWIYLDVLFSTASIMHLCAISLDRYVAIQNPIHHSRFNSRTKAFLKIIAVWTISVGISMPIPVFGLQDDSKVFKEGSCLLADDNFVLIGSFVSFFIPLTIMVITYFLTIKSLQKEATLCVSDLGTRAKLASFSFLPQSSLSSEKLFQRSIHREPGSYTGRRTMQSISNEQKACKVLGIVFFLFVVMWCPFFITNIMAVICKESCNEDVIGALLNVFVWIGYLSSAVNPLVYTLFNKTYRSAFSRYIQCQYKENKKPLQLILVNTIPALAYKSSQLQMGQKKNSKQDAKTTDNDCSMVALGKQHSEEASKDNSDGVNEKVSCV

Chain of SERT (P31645 whole entry): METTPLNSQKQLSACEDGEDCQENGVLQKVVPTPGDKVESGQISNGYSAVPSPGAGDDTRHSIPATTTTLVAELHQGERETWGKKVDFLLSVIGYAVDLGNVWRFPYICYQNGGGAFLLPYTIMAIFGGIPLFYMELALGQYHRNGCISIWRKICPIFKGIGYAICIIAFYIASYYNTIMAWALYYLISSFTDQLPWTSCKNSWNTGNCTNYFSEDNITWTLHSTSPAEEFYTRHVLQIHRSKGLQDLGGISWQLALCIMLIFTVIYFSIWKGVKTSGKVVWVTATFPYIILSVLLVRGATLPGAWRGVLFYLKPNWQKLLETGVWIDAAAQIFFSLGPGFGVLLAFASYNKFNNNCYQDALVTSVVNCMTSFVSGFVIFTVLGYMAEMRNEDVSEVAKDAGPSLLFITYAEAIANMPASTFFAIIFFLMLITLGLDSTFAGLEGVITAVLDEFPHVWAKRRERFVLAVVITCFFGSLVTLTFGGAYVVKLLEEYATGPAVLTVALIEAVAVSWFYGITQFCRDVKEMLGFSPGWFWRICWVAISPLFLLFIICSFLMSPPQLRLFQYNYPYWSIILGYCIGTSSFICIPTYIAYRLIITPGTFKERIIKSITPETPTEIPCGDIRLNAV
Chain of D2 (P14416 1-414 isoform P14416-2): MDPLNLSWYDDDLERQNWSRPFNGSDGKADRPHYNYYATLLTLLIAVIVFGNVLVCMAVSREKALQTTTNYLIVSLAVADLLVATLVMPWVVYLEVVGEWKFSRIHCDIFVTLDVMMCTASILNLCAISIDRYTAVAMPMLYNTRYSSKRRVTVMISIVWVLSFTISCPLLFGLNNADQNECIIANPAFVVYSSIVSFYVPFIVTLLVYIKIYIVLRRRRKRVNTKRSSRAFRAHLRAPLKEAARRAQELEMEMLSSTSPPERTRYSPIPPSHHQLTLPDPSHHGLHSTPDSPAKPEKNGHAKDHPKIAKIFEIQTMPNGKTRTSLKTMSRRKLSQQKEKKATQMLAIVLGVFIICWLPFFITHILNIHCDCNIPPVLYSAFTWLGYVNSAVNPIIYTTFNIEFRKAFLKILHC
Chain of D1 (P21728 whole entry): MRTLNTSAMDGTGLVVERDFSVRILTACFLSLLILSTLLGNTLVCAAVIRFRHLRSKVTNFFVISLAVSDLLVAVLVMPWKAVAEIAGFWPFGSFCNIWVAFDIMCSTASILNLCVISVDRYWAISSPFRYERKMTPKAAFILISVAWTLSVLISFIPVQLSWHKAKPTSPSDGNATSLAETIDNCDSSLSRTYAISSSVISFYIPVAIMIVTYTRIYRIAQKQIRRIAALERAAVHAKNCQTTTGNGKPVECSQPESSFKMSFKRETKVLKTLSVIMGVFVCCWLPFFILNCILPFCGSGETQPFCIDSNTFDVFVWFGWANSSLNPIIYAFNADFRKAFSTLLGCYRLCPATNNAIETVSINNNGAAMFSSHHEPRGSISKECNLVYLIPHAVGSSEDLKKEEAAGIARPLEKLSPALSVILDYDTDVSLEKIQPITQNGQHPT
Chain of Mu opiate receptor (P35372 whole entry): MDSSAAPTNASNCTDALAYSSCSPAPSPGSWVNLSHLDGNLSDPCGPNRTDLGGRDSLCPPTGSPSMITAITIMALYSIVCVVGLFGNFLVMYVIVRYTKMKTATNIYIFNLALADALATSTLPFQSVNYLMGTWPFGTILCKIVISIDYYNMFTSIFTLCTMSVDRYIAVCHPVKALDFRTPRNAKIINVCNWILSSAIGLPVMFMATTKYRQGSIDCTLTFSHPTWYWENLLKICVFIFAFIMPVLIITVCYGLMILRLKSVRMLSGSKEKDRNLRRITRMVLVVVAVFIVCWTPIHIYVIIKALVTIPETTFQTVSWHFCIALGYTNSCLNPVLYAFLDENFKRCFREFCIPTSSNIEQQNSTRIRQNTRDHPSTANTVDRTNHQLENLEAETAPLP

Compound | D1 receptor binding, in words (D1) | SERT activity, in words (SERT) | D2 receptor binding, in words (D2) | mu-opiate receptor binding, in words (Mu opiate receptor) | 5-HT2A receptor activity, in words (5-HT2A)
O=C1CN2c3c(cccc3[C@@H]3CN(CCCOc4ccc(F)cc4)CC[C@H]32)N1 (racemic) [Example 1, trans-8-(3-(4-fluorophenoxy)propyl)-6b,7,8,9,10,10a-hexahydro-1H-pyrido[3′,4′:4,5]pyrrolo[1,2,3-de]quinoxalin-2(3H)-one] | very strong | no SERT activity | moderate D2 receptor binding | – | –
O=C1CN2c3c(cccc3[C@@H]3CN(CCCOc4ccc(F)cc4)CC[C@@H]32)N1 [Compound A] | – | very little SERT binding | – | – | –
O=C1CN2c3c(cccc3[C@H]3CN(CCCOc4ccc(F)cc4)CC[C@H]32)N1 [Compound B] | moderately strong D1 receptor binding | no SERT activity | weak D2 receptor affinity | only weak mu receptor activity | moderately strong
